Test [1] deals with Canis familiaris. The experiment in a line: Peripheral vasodilating activity in mongrel dog assessed as increase in iliac blood flow at 16 ug, ia in presence of isoproterenol and 2000 ug/kg timolol. The test is classed as functional, Canis lupus familiaris, Artery.
For test [2], the system named is Canis familiaris. In words: In-vivo beta-adrenergic blocking activity in iv dosed mongrel dog assessed as blockade of isoproterenol-induced tachycardia by measuring heart rate. The test is classed as functional. Particulars: Canis lupus familiaris.
Test [3] concerns Canis familiaris. In words: Peripheral vasodilating activity in mongrel dog assessed as increase in iliac blood flow at 1600 ug, ia in presence of isoproterenol and 2000 ug/kg timolol. The test is classed as functional, Canis lupus familiaris, Artery.
The subject of test [4] is Canis familiaris. In words: In-vivo beta-adrenergic blocking activity in iv dosed mongrel dog assessed as blockade of isoproterenol-induced hypotension by measuring mean arterial pressure. To be noted: Canis lupus familiaris, Artery. The test is classed as functional.
Test [5] relates to Canis familiaris. In words: Peripheral vasodilating activity in mongrel dog assessed as increase in iliac blood flow at 8 ug, ia in presence of isoproterenol and 2000 ug/kg timolol. It counts as functional, Canis lupus familiaris, Artery.
The species named for test [6] is Canis familiaris. In words: Peripheral vasodilating activity in mongrel dog assessed as increase in iliac blood flow at 16 ug, ia. It counts as functional, Canis lupus familiaris, Artery.
Test [7] deals with Rattus norvegicus. The experiment in a line: Antihypertensive activity in spontaneously hypertensive rat assessed as maximum fall in mean arterial pressure at 5 mg/kg, po. It counts as functional, Artery.
For test [8], the system named is Rattus norvegicus. The experiment in a line: Antihypertensive activity in spontaneously hypertensive rat assessed as maximum fall in mean arterial pressure at 0.312 mg/kg, po. It counts as functional, Artery.
Test [9] has as its system Canis familiaris. In words: Peripheral vasodilating activity in mongrel dog assessed as increase in iliac blood flow at 32 ug, ia in presence of isoproterenol and 2000 ug/kg timolol. The test is classed as functional, Canis lupus familiaris, Artery.
Test [10] relates to Canis familiaris. The experiment in a line: In-vivo beta-adrenergic blocking activity in iv dosed mongrel dog assessed as blockade of isoproterenol-induced bronchodilation by measuring pulmonary pressure. It counts as functional. Particulars: Canis lupus familiaris.
The species named for test [11] is Canis familiaris. In words: Peripheral vasodilating activity in mongrel dog assessed as increase in iliac blood flow at 8 ug, ia. The test is classed as functional, Canis lupus familiaris, Artery.
The subject of test [12] is Rattus norvegicus. The experiment in a line: Antihypertensive activity in spontaneously hypertensive rat assessed as maximum fall in mean arterial pressure at 1.25 mg/kg, po. It counts as functional, Artery.
The species entered for test [13] is Canis familiaris. In words: Peripheral vasodilating activity in mongrel dog assessed as increase in iliac blood flow at 1600 ug, ia. The test is classed as functional, Canis lupus familiaris, Artery.
Test [14] is filed under the species Canis familiaris. In words: Peripheral vasodilating activity in mongrel dog assessed as increase in iliac blood flow at 32 ug, ia. The test is classed as functional, Canis lupus familiaris, Artery.
Test [15] has as its system Rattus norvegicus. In words: Antihypertensive activity in spontaneously hypertensive rat assessed as maximum fall in mean arterial pressure at 20 mg/kg, po. It counts as functional, Artery.
The test system of test [16] is Canis familiaris. In words: Peripheral vasodilating activity in mongrel dog assessed as increase in iliac blood flow at 1600 ug, ia in presence of isoproterenol and 500 ug/kg timolol. The test is classed as functional, Canis lupus familiaris, Artery.
The species entered for test [17] is Canis familiaris. The experiment in a line: Peripheral vasodilating activity in mongrel dog assessed as increase in iliac blood flow at 250 ug, ia. It counts as functional, Canis lupus familiaris, Artery.
The subject of test [18] is Canis familiaris. The experiment in a line: Peripheral vasodilating activity in mongrel dog assessed as increase in iliac blood flow at 1600 ug, ia in presence of isoproterenol and 1000 ug/kg timolol. The test is classed as functional, Canis lupus familiaris, Artery.

As a reminder, the ED50 is the dose at which the effect has come halfway, by size or by number of responders.

As for `CC(C)(C)NCC(O)COc1ccc(-c2nc(C(F)(F)F)c[nH]2)cc1` (racemic), the Activity in the test on Canis familiaris [1] came to 17 mL/min; in the test with Canis familiaris [3], 15 mL/min; in the test on Canis familiaris [5], 10 mL/min; in the test filed under Canis familiaris [6], 58 mL/min; in the test with Rattus norvegicus [7], 49 mmHg; in the test with Rattus norvegicus [8], 21 mmHg. Also, the Activity is 15 mL/min in the test on Canis familiaris [9]; 52 mL/min in the test listed under Canis familiaris [11]; 36 mmHg in the test on Rattus norvegicus [12]; 79 mL/min in the test filed under Canis familiaris [13]; 63 mL/min in the test filed under Canis familiaris [14]. The ED50 in the test with Canis familiaris [2] amounted to 0.0076 mg/kg; in the test on Canis familiaris [4], 0.042 mg/kg; in the test with Canis familiaris [10], 0.071 mg/kg.

Turning to `CC(C)(C)NCC(O)COc1ccc(-c2ncc[nH]2)cc1` (racemic), the Activity in the test with Rattus norvegicus [15] stood at 18 mmHg; in the test filed under Canis familiaris [13], 36 mL/min; with Canis familiaris [16], 31 mL/min. Besides, the values for the ED50 in the test with Canis familiaris [2], in the test on Canis familiaris [4] and with Canis familiaris [10] were 0.098 mg/kg, greater than 1 mg/kg and greater than 1 mg/kg, respectively.

`Cc1cc(OCC(O)CNC(C)(C)C)ccc1-c1ncc(C(F)(F)F)[nH]1` (racemic): the Activity in the test with Rattus norvegicus [15] came out at 44 mmHg; in the test with Rattus norvegicus [7] it was 43 mmHg; in the test filed under Canis familiaris [17], 11 mL/min; in the test on Rattus norvegicus [12] it was 32 mmHg; in the test filed under Canis familiaris [13], 27 mL/min. Besides, the ED50 in the test on Canis familiaris [2] turned out to be 0.0227 mg/kg; in the test on Canis familiaris [4], 0.361 mg/kg; in the test with Canis familiaris [10], 0.0298 mg/kg.

Consider `Cc1cc(-c2ncc(C(F)(F)F)[nH]2)ccc1OCC(O)CNC(C)(C)C` (racemic), for which the ED50 with Canis familiaris [2] was 0.011 mg/kg; in the test with Canis familiaris [4], 0.022 mg/kg. Moreover, the Activity came out at 36 mmHg in the test on Rattus norvegicus [7]; 6 mL/min in the test listed under Canis familiaris [17]; 20 mL/min with Canis familiaris [18]; 23 mmHg in the test with Rattus norvegicus [12]; 52 mL/min in the test listed under Canis familiaris [13].

Turning to `Cc1c[nH]c(-c2ccc(OCC(O)CNC(C)(C)C)cc2)n1` (racemic), the Activity was found to be 27 mmHg in the test with Rattus norvegicus [15]; 62 mL/min in the test on Canis familiaris [3]; 6 mmHg in the test on Rattus norvegicus [7]; 101 mL/min in the test filed under Canis familiaris [13]; 75 mL/min in the test on Canis familiaris [16]. Besides, the median effective dose (ED50) in the test with Canis familiaris [2] was 0.106 mg/kg; with Canis familiaris [4] it was greater than 1 mg/kg.

The record behind these values is ChEMBL document CHEMBL3244218, “beta-Adrenergic blocking agents with acute antihypertensive activity” (1979).
